Some test systems named below: ACHN; U-251; K562; SF-539; HT-29; Malme-3M; NCI-H23; SK-OV-3; SK-MEL-5; MDA-MB-435; CAKI-1; IGROV-1; MOLT-4; NCI/ADR-RES; MDA-MB-231; DU-145; KM12; RXF 393.
Common to all, as to test: NCI anticancer screen, dose series, 48 h

Consider eight molecules from ChEMBL document CHEMBL1201862, “PubChem BioAssay data set” (2004).

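Interpolation was linear, between the two tested concentrations surrounding the appropriate level; five concentrations were tested over 48 hours in 96-well plates. GI50 = concentration required for 50% inhibition of growth.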 The source made the active and inactive calls. No stated cut-off is given here; in the data, active = GI50 up to about 1.1 µM and inactive = higher. Some results are limits rather than exact numbers.

Take `CC(C)(C)N1C=[N+](C(C)(C)C)CC1`: the GI50 in the experiment with ACHN, with U-251, in the experiment on K562, in the experiment on SF-539, with HT-29 and with Malme-3M was > 100 µM (inactive) in each case. In addition, the GI50 with NCI-H23, in the experiment with SK-OV-3, in the experiment on SK-MEL-5, with MDA-MB-435, in the experiment with CAKI-1 and in the experiment with IGROV-1 was > 100 µM (inactive) throughout. Moreover, the GI50 with MOLT-4, in the experiment with NCI/ADR-RES, in the experiment with MDA-MB-231, with DU-145, in the experiment on KM12 and with RXF 393 was > 100 µM (inactive) in each case.

As to `COc1cc2c(c(O)c1OC)C(=O)C(Cc1ccc(O)cc1)CO2` (stereo not drawn), the GI50 in the experiment with ACHN was 42.5 µM (inactive); in the experiment with U-251, 29.5 µM (inactive); with K562 it was 13.1 µM (inactive); in the experiment with SF-539, 16.1 µM (inactive); in the experiment with HT-29, 75.7 µM (inactive); in the experiment with Malme-3M it was 19.9 µM (inactive). Moreover, the GI50 was 29 µM (inactive) with NCI-H23; 18.4 µM (inactive) with SK-OV-3; 26.5 µM (inactive) in the experiment with SK-MEL-5; 2.36 µM (inactive) with MDA-MB-435; 23 µM (inactive) in the experiment on CAKI-1; 35.3 µM (inactive) in the experiment on IGROV-1. Also, the GI50 in the experiment with MOLT-4 is 35.2 µM (inactive); in the experiment on NCI/ADR-RES, 10.5 µM (inactive); in the experiment with MDA-MB-231, 22.9 µM (inactive); in the experiment on DU-145, 39.8 µM (inactive); in the experiment with KM12, 23.4 µM (inactive); with RXF 393, 13 µM (inactive).

For the molecule `Cc1ccc(-c2cc(N)n(-c3nc4c([nH]3)c(=O)n(C)c(=O)n4C)n2)cc1`, the GI50 in the experiment with ACHN was 1.92 µM (inactive); in the experiment on U-251, 5.36 µM (inactive); in the experiment with K562, 4.03 µM (inactive); in the experiment on SF-539 it was 4.24 µM (inactive); in the experiment on HT-29, 4.53 µM (inactive); with Malme-3M, 3.86 µM (inactive). Besides, the GI50 was 8.95 µM (inactive) in the experiment with NCI-H23; 3.3 µM (inactive) with SK-OV-3; 3.36 µM (inactive) in the experiment on SK-MEL-5; 7.73 µM (inactive) in the experiment with MDA-MB-435; 0.778 µM (active) in the experiment on CAKI-1; 2.2 µM (inactive) in the experiment with IGROV-1. The GI50 is 2.06 µM (inactive) in the experiment on MOLT-4; 1.55 µM (inactive) in the experiment on NCI/ADR-RES; 8.97 µM (inactive) in the experiment on MDA-MB-231; 6.35 µM (inactive) in the experiment on DU-145; 4.88 µM (inactive) in the experiment on KM12; 17.6 µM (inactive) in the experiment with RXF 393.

As to `NCCCN1c2ccccc2Sc2ccc(Cl)cc21`, the GI50 was 6.18 µM (inactive) with ACHN; 5.38 µM (inactive) in the experiment on U-251; 2.63 µM (inactive) with K562; 5.22 µM (inactive) in the experiment with SF-539; 2.55 µM (inactive) in the experiment with HT-29; 6.97 µM (inactive) in the experiment on Malme-3M. The GI50 in the experiment with NCI-H23 was > 10 µM (inactive); in the experiment with SK-OV-3, > 6.56 µM (inactive); with SK-MEL-5 it was > 4.02 µM (inactive); in the experiment on MDA-MB-435 it was 1.93 µM (inactive); with CAKI-1, > 8.24 µM (inactive); in the experiment on IGROV-1 it was > 5.43 µM (inactive). Also, the GI50 in the experiment on MOLT-4 is 2.88 µM (inactive); with NCI/ADR-RES, > 5.4 µM (inactive); in the experiment on MDA-MB-231, 3.33 µM (inactive); in the experiment with DU-145 it was > 10 µM (inactive); in the experiment with KM12, 2.51 µM (inactive); in the experiment with RXF 393, > 7.28 µM (inactive).

Turning to `c1ccc(CCCCNCc2cc(CNCCCCc3ccccc3)cc(CNCCCCc3ccccc3)c2)cc1`, the GI50 in the experiment on ACHN was 1.63 µM (inactive); in the experiment on U-251, 1.12 µM (inactive); in the experiment with K562 it was 0.272 µM (active); in the experiment with SF-539, 0.8 µM (active); in the experiment with HT-29, 1.02 µM (active); with Malme-3M, 1.76 µM (inactive). In addition, the GI50 with NCI-H23 is 1.28 µM (inactive); with SK-OV-3, 1.97 µM (inactive); in the experiment on SK-MEL-5 it was 1.81 µM (inactive); in the experiment with MDA-MB-435 it was 1.21 µM (inactive); with CAKI-1 it was 1.86 µM (inactive); in the experiment with IGROV-1, 0.815 µM (active). The GI50 in the experiment with MOLT-4 is 0.251 µM (active); with NCI/ADR-RES, 0.76 µM (active); with MDA-MB-231 it was 1.61 µM (inactive); in the experiment on DU-145 it was 0.762 µM (active); in the experiment on KM12, 0.544 µM (active); in the experiment on RXF 393, 1.31 µM (inactive).

Turning to `O=C1N/C(=N/N=C/C(O)C(O)C(O)C(O)CO)N/C1=C\c1ccco1` (stereo not drawn), the GI50 with ACHN was > 100 µM (inactive); in the experiment with U-251 it was 89.7 µM (inactive); in the experiment on K562, > 100 µM (inactive); in the experiment on SF-539, > 100 µM (inactive); with HT-29 it was > 100 µM (inactive); in the experiment with Malme-3M, > 100 µM (inactive). The GI50 with NCI-H23, with SK-OV-3, in the experiment on SK-MEL-5, in the experiment with MDA-MB-435, with CAKI-1 and in the experiment with IGROV-1 was > 100 µM (inactive) in each case. In addition, the GI50 with MOLT-4, with NCI/ADR-RES, in the experiment with MDA-MB-231, in the experiment on DU-145, in the experiment on KM12 and in the experiment with RXF 393 was > 100 µM (inactive) throughout.

For the molecule `O=[N+]([O-])C(=C1NCCN1)C(Cl)=C(Cl)Cl`, the GI50 in the experiment on ACHN, in the experiment with U-251, in the experiment on K562, in the experiment on SF-539, with HT-29 and with Malme-3M was > 100 µM (inactive) in each case. Further, the GI50 in the experiment on NCI-H23, with SK-OV-3, in the experiment on SK-MEL-5, with MDA-MB-435, in the experiment with CAKI-1 and with IGROV-1 was > 100 µM (inactive) throughout. Besides, the GI50 with MOLT-4 is 49.5 µM (inactive); with NCI/ADR-RES, > 100 µM (inactive); in the experiment on MDA-MB-231, > 100 µM (inactive); with DU-145, > 100 µM (inactive); in the experiment on KM12, > 100 µM (inactive); in the experiment with RXF 393, > 100 µM (inactive).

`C/C=C(\C)CC/C=C/CO[Si](C)(C)C(C)(C)C`: the GI50 is > 100 µM (inactive) with ACHN; > 100 µM (inactive) with K562; > 100 µM (inactive) in the experiment on SF-539; 42.5 µM (inactive) with HT-29; 51.1 µM (inactive) in the experiment with Malme-3M; > 100 µM (inactive) in the experiment with NCI-H23. In addition, the GI50 in the experiment on SK-OV-3 was > 100 µM (inactive); in the experiment with SK-MEL-5, > 100 µM (inactive); in the experiment on MDA-MB-435, > 100 µM (inactive); in the experiment on CAKI-1 it was > 100 µM (inactive); in the experiment with IGROV-1, > 100 µM (inactive); in the experiment with MOLT-4, 39 µM (inactive). The GI50 with NCI/ADR-RES, in the experiment with MDA-MB-231, in the experiment with DU-145, in the experiment on KM12 and in the experiment with RXF 393 was > 100 µM (inactive) in each case.
